Results as given in US20220409602A1, “DOPAMINE D3 RECEPTOR LIGANDS FOR TREATMENT OF DYSKINESIA” (TEXAS BIOMEDICAL RESEARCH INSTITUTE, priority 2021, published 2022).
“Also recorded” adds a separate entry of the source.

Tests used:
Format in all cases: in vivo, marmoset
Parkinsonian marmosets [1] = assay: PD-like symptoms and object retrieval task with barrier detour; details: compared to control or SWR-3-73
Protocol: The PD-like symptoms evaluated included tremors, bradykinesia, and posture and general activity measured by an accelerometer device, the Actiwatch mini. In addition, motor and cognitive functions were measured using the object retrieval task with barrier detour.
The object retrieval task with a barrier detour is a reward based behavioral testing system that was previously described to evaluate motor and cognitive functions of NHP. Briefly, the task requires the test subject to retrieve a reward (marshmallow) fastened to a tray from the open side (bypassing the barrier) of a transparent box. […] All parameters measured were previously described in detail. […] The entire process was recorded using a video camera and the recordings were then analyzed and scored by a blinded experimenter. During each trial, the following responses were scored (1) ability of the animal to reach the front, left, or right side of the box, scored under the term “reach act”; (2) hand of choice for the reach, either left or right, scored under the term “hand used”; (3) the outcome of the reach, either success or failure, scored under result section.
Using the above parameters, additional variables were analyzed: 1) Motor problem: Reaching into the open side of the box but without retrieving the reward. […]

[2] = test system: Parkinsonian marmosets with levodopa-induced dyskinesia; assay: levodopa-induced dyskinesia in MPTP Parkinsonian marmosets, dyskinesia rating scale; details: for expression of levodopa-induced dyskinesia: oral, with levodopa 20 mg/kg, test drug 10 mg/kg where stated
Protocol: (§1) Briefly, MPTP (Sigma Aldrich) (dissolved in physiological saline) at a concentration of 2 mg/ml was subcutaneously injected (2 mg/kg B.wt) for 5 consecutive days. After a wash out period of 72 hours from last MPTP injection, the marmosets were returned to their home cages and monitored twice daily for rest of the study period.
(§2) For induction of dyskinesias, Levodopa (Sigma Aldrich) and carbidopa (Sigma Aldrich) at 1:1 were administered orally once daily for 5 days of a week. The drugs were mixed in either Ensure® pudding, cottage cheese, or marshmallows. […] Once the animals were acclimated to the drugs, the dose was increased to 20 mg/kg B.wt and continued for next 6 weeks.
The severity of dyskinesia in the marmosets was categorized using a validated dyskinesia rating scale for NHPs. Dyskinesia was analyzed from 5-minute videos of the monkeys recorded at every 30 minutes on Tuesday, Wednesday and Thursday of each week. The videos were recorded between 9:30 AM-4:30 PM. Each day the vehicle or drugs were administered at 11:30 AM. The severity of dyskinesias was scored for different segments of the animal's body on a scale from 0 to 3, with 0=absent, 1=mild, 2=moderate, 3=severe. The body segments scored were: 1. Right upper limb dyskinesias (0-3); 2. Left upper limb dyskinesias (0-3); 3. Right lower limb dyskinesias (0-3); 4. left lower limb dyskinesias (0-3); 5. Trunk dyskinesias (0-3); 6, Head/facial dyskinesias (0-3). The severity of the rating was based on the frequency and amplitude of the abnormal movements. The total score is deducted from the six sub-scores to yield a dyskinesia score of 0 to 3: with 0=absent, 1=mild, manifesting by transient abnormal involuntary movements with choreic form, flicking of arms and limbs, increased running and hopping in the cages. […] 3=severe, characterized by a sustained dyskinesia manifesting with chorea and athetosis with sinuous writhing movements of the limbs, and dystonia with sustained extension of hind limbs and knees. The animals are unable to reach and grasp for treats (Video 1).

Parkinsonian marmosets [3] = assay: motor activity recorded by actiwatch-mini during levodopa-induced dyskinesia; details: for motor activity / hyperactivity during peak-dose dyskinesia (actiwatch-mini): test drug 10 mg/kg with levodopa 20 mg/kg
Protocol: as §2
(§3) The diurnal and nocturnal behavior of the marmosets was monitored using the actiwatch mini (Camntech, UK) as previously described. The device is an accelerometer that measures the intensity of the test subject's omnidirectional movements in units or counts that are directly proportional to the animal's activity. The device (2 cm in diameter) was placed on a collar around the neck of the marmoset. The animals were acclimatized to the collar in short sessions of 15 min followed by gradual increments of 30 min, 1 hr, 3 hrs, 6 hrs and 12 hrs. Once acclimatized, the actiwatch mini was attached to the collar and the activity-rest data was recorded for a period of 24 hours on 3 separate days of each treatment. The actiwatches were placed on animals at 8:30 AM and the devices were preset to start recording activity data from 9:00 AM. At 11:30 AM either the vehicle or the drugs were orally administered to the animals. The following day, the actiwatch was removed after 9:00 AM and the data was transferred to a computer through an actiwatch reader using the actiwatch activity and sleep analysis-7 software (Camntech, UK). For sleep analysis, the period of sustained quiescence (marmosets sleep cycle) starting at 7:00 PM in the evening to early morning 6:30 AM (approximately 11½ hrs) was analyzed using the sleep analysis-7 software to quantify the sleep quality and wakeful periods. The duration of sleep time was corrected for individual variations in the animal's behavior to fall asleep at different time of the evening, thereby keeping the period of sleep time analyzed same for all the animals. The analyzed data was then exported to Excel® and plotted using the Graph pad prism statistical software. To determine the change in activity after the administration of drugs, actiwatch data in 10-minute bins were exported using the actiwatch activity and sleep analysis-7 software and plotted in Graph Pad Prism.

Parkinsonian marmosets [4] = assay: Parkinson's Disease Rating Scale (PDRS) in dyskinetic Parkinsonian marmosets
Protocol: as §1, with “All the animals (n=3) have been previously treated with MPTP as described in detail. Briefly,” for “Briefly,”
as §2
The severity of symptoms in the marmosets was categorized using a validated Parkinsonian rating scale for NHP. The PDRS correlates highly with striatal dopamine concentrations detected by postmortem immunohistopathology and it is modeled on the Unified Parkinson's Disease Rating Scale (UPDRS) and the Hoehn & Yahr scale used clinically to categorize PD patients. The PDRS was performed in daylight by video recording animals for 30 minutes. The evaluation was carried out biweekly before and after MPTP injections. The videos were scored by a blinded operator using PDRS, with a maximal disability score of 57 in the following manner: 0=normal, 1=mild, 2=moderate, 3=severe; rest tremor, action tremor, tremor of the head, tremor right arm, tremor left arm, freezing, locomotion, fine motor skills right hand, fine motor skills left hand, bradykinesia right arm, bradykinesia left arm, posture, hypokinesia, balance, posture, startle response, gross motor skills right hand and gross motor skills left hand, apathy (defined as a state of indifference), vocalization, drooling or frothing, tongue/face/lips. Independently of the PDRS, rigidity was assessed by evaluating the resistance to passive joint movements and the range of motion during reaching for food. […]

Parkinsonian marmosets [5] = assay: nocturnal activity and sleep analysis by actiwatch-mini; details: with levodopa 20 mg/kg
Protocol: as §2, §3

[6] = PD13R 0.1 to 10 mg/kg, SWR-3-73 and amantadine 10 mg/kg
[7] = first week of high dose levodopa/carbidopa 20 mg/kg
[8] = levodopa 20 mg/kg combined with vehicle
[9] = levodopa 20 mg/kg acute challenge

Structure (SMILES): N#Cc1cccc(N2CCN(CCCCNC(=O)c3ccc(-c4ccsc4)cc3)CC2)c1 [PD13R]
- PD-like symptoms and movement coordination (Parkinsonian marmosets [1]): clear improvement in all PD-like symptoms and movement coordination
- reduction of the expression of dyskinesia in the peak-dose period ([2]; 10 mg/kg with levodopa 20 mg/kg): approximately 85%
- anti-dyskinetic effects ([2]; PD13R 0.1 mg/kg with levodopa 20 mg/kg): no anti-dyskinetic effects were observed
- time to reach peak-dose dyskinesia ([2]; PD13R 5 mg/kg with levodopa 20 mg/kg): 1 h
- dose with optimal anti-dyskinetic outcome ([2]; dose range with levodopa 20 mg/kg): 10 mg/kg
- expression of levodopa-induced dyskinesia [2]: inhibited the expression of levodopa-induced dyskinesia; also recorded: significantly suppresses the expression of levodopa-induced dyskinesia; also recorded: eliminates the expression of levodopa-induced dyskinesia; also recorded: eliminated the levodopa-induced dyskinesia; also recorded: significantly inhibited the expression of dyskinesias
- hyperactivity during the peak-dose period (actograms) (Parkinsonian marmosets [3]; PD13R 0.1 to 10 mg/kg with levodopa 20 mg/kg): dose-dependent and significant reduction in the hyperactivity
- motor activity / hyperactivity during peak-dose dyskinesia (actiwatch-mini) (Parkinsonian marmosets [3]): motor activity remained within the therapeutic ON-period zone without dyskinesia; also recorded: maintained the motor activity within the ON-period without dyskinesia; also recorded: kept the motor activity within the ON-period; also recorded: inhibited the increased hyperactivity
- Parkinson's Disease Rating Scale (PDRS) (Parkinsonian marmosets [4]; PD13R 10 mg/kg with levodopa in dyskinetic marmosets): significantly improved the PDRS

Structure (SMILES): NC12CC3CC(CC(C3)C1)C2 [amantadine]
- expression of levodopa-induced dyskinesia [2]: inhibited the expression of dyskinesia; also recorded: significantly inhibited the expression of dyskinesias
- motor activity / hyperactivity during peak-dose dyskinesia (actiwatch-mini) (Parkinsonian marmosets [3]): inhibited the increased hyperactivity
- motor activity / hyperactivity during peak-dose dyskinesia (actiwatch-mini) (Parkinsonian marmosets [3]; listed as Amantadine): maintained the motor activity within the ON-period without dyskinesia
- actual awake time during the assumed sleep period (Parkinsonian marmosets [5]): actual awake time was significantly increased
- effect on sleep (overall) (Parkinsonian marmosets [5]): experienced abnormal irregular sleep and sleep disturbances
- nocturnal activity (Parkinsonian marmosets [5]; [6]): clear abnormal increase in nocturnal activity; also recorded: significant increase in nocturnal activity
- sleep efficiency (Parkinsonian marmosets [5]; [6]): significantly dropped; also recorded: decrease in sleep efficiency; also recorded: sleep efficiency significantly decreased

Structure (SMILES): N[C@@H](Cc1ccc(O)c(O)c1)C(=O)O [levodopa, L-3,4-dihydroxy-phenylalanine]
- duration of dyskinesia after dosing ([2]; 6th week of high dose levodopa 20 mg/kg): up to 4 hours
- duration of abnormal involuntary movements [2, 7]: up to 180 minutes
- time after dosing at which abnormal involuntary movements became visible [2, 7]: approximately 30 minutes
- duration of the peak-dose period of dyskinesias [2, 8]: 2 h
- time to reach the peak-dose period of dyskinesias after dosing [2, 8]: 30 min
- highest dyskinesia disability score ([2]; levodopa 20 mg/kg combined with vehicle, scale 0 to 3): 3
- time to cross the dyskinesia threshold after injection (motor activity) (Parkinsonian marmosets [3]; [9]): ≤ 30 min
- time to return to the ON-period without dyskinesia (Parkinsonian marmosets [3]; [9]): approximately 145 minutes
- Parkinsonian symptoms (PDRS) (Parkinsonian marmosets [4]; high doses of levodopa): worsened the Parkinsonian symptoms
- PDRS (Parkinsonian marmosets [4]; physiological doses of levodopa): improved the PDRS
